Drawing on ChEMBL document CHEMBL1641578, “Design and synthesis of 3-(azol-1-yl)phenylpropanes as microbicidal spermicides for prophylactic contraception” (Bioorg Med Chem Lett, 2011), this text covers Activity and MIC for three molecules.

Data set [1] in a line: Toxicity against Lactobacillus acidophilus at 200 ug/ml after 24 hrs by microplate reader.
The test system of data set [2] is Candida albicans. Put plainly: Antifungal activity against Candida albicans after 48 hrs by broth microdilution assay. In kind it is functional.
The subject of another data set is Candida parapsilosis. The data set is described as follows: Antifungal activity against Candida parapsilosis after 48 hrs by broth microdilution assay. The following applies: Lodderomyces parapsilosis. The format is functional.
A further data set has as its system HeLa. Put plainly: Cytotoxicity against human HeLa cells at 200 ug/ml after 24 hrs by MTT based colorimetric assay. In kind it is cell-based. For orientation: Tetrazolium dyes change colour on reduction, which living cells bring about.
Data set [3] deals with Candida albicans. Put plainly: Antifungal activity against Candida albicans isolate CDRI after 48 hrs by broth microdilution assay. In kind it is functional. A general note: Dilution methods test growth across graded concentrations, often in twofold steps.
The next data set relates to Spermatozoa. The data set is described as follows: Spermicidal activity against human spermatozoa assessed as immobilization measured for 60 seconds by visual scoring. Details: concentration or dose not given beside the values. In kind it is functional.
For a further data set, the system named is Trichomonas vaginalis. The data set is described as follows: Antitrichomonas activity against Trichomonas vaginalis after 48 hrs by trypan blue exclusion assay. The format is functional.
In data set [4] the test system is Candida albicans. The data set is described as follows: Antifungal activity against Candida albicans MTCC-183 after 48 hrs by broth microdilution assay. The format is functional. The following applies: MTCC-183, 48 h.
In data set [5] the test system is Candida albicans. The data set is described as follows: Antifungal activity against Candida albicans NCIM-3557 after 48 hrs by broth microdilution assay. In kind it is functional. As to conditions: NCIM-3557, 48 h.

Values after ≈ are worked out from the molar mass of the structure shown.

Broadly, the MIC is the least concentration at which growth counts as inhibited.

On to `O=C(CCn1cnc2ccccc21)c1ccccc1`, for which the Activity result in data set [1] was “Non-toxic”; in the data set with HeLa it was “Non-toxic”; with Spermatozoa it was 100%. Also, the MIC is 25 µg/mL (≈ 99.9 µM) in the data set on Candida albicans [2]; 50 µg/mL (≈ 200 µM) with Candida parapsilosis; 25 µg/mL (≈ 99.9 µM) with Candida albicans [3]; 200 µg/mL (≈ 799 µM) with Trichomonas vaginalis; above 50 µg/mL in the data set with Candida albicans [4]; 50 µg/mL (≈ 200 µM) in the data set with Candida albicans [5].

For `O=C(CCn1cncn1)c1ccccc1`, the Activity result in [1] is on record as “Non-toxic”; in the data set on HeLa it was “Non-toxic”; in the data set on Spermatozoa it was 60%. The minimal inhibitory concentration (MIC) with Candida albicans [2] was above 50 µg/mL; in the data set with Candida parapsilosis, above 50 µg/mL; against Candida albicans [3] it was 50 µg/mL (≈ 248 µM); with Trichomonas vaginalis it was above 200 µg/mL; against Candida albicans [4], above 50 µg/mL; in the data set with Candida albicans [5] it was above 50 µg/mL.

Consider `CCCCCCCCCc1ccc(OCCOCCOCCOCCOCCOCCOCCOCCOCCO)cc1` [NONOXYNOL 9], for which the Activity result in [1] is recorded as “Non-toxic”; in the data set with HeLa, “Non-toxic”; in the data set with Spermatozoa it was 100%. Besides, the MIC against Candida albicans [2] was above 50 µg/mL; in the data set on Candida parapsilosis, 50 µg/mL (≈ 81.1 µM); in the data set with Candida albicans [3], above 50 µg/mL; against Trichomonas vaginalis, 37.4 µg/mL (≈ 60.6 µM); in the data set with Candida albicans [4] it was above 50 µg/mL; in the data set on Candida albicans [5] it was above 50 µg/mL.
